From patent publication US20110274661A1, “Attentuated Herpesvirus Encoding a Mek Pathway Polypeptide” (The University of Chicago, priority 2008, published 2011)

Experiments:
[1] = tested on: HT1080 cells; assay: R3616 viral yield in HT1080 cells with MEK inhibitor PD98059 or DMSO; format: cell-based, human; settings: R3616 1 PFU/cell
Description: (§1) Inhibitor studies—For experiments employing the known MEK inhibitor, PD98059, HT1080 cells were starved over night in serum-free medium and then exposed to 40 μM of PD98059 (EMD Biosciences, San Diego, Calif.), or DMSO (1:1000 dilution) 6 hours prior to, and during, infection. At 12 hours post-infection, whole cell lysates were created as described above for immunoblotting.
Finally, to determine if MEK inhibition affects viral replication, DMSO or PD98059 (40 μM) was added to replicate cultures of HT1080 cells 6 hours prior to, and during, infection with R3616 (1 PFU/cell). The cells were harvested at 36 hours post-infection and viral yields were measured by plaque assays on Vero cell monolayers.

[2] = tested on: HT1080 cells infected with R3616; assay: Immunoblot of viral proteins and phosphorylated PKR in R3616-infected HT1080 cells treated with PD98059; format: cell-based, human
Description: Immunoblotting—Experiments to analyze the accumulation of viral proteins and phosphorylation of ERK, PKR and eIF-2α were performed on whole-cell lysates harvested on ice at either 12 or 14 hours post-infection with lysis buffer, sonicated for 10 seconds, and clarified by centrifugation. Total protein from the supernatant was quantified by the Bradford method and 20 μg of equilibrated protein was subjected to electrophoresis in 12% or 7.5% (vol/vol) denaturing polyacrylamide gels, transferred to PVDF membranes (Millipore Corporation), blocked, and reacted with primary antibody followed by appropriate secondary antibody.
as §1
To determine if MEK mediates the observed mutant Ras-dependent suppression of PKR activation and resultant accumulation of viral proteins in HT1080 cells infected with mutant virus R3616, the relative expressions of representative α (ICP27), β (UL42) and γ2(glycoprotein C) viral proteins in cells treated with a specific chemical inhibitor of MEK-1 (PD98059) were compared. Replicate cultures of HT1080 cells were serum-starved overnight prior to exposure to equal volumes of DMSO or PD98059 (40 μM) for 6 hours prior to infection with R3616 mutant virus (10 PFU/cell). DMSO or drug treatment was then continued until the cells were harvested at 12 hours post-infection. The cells were then lysed and the lysates were subjected to electrophoresis in denaturing polyacrylamide gels, followed by transferring to PVDF membranes and reacting with antibody to ICP27, UL42, or gC. […] To test whether the decrease in the accumulation of gC correlated with activation of PKR, the electrophoretically separated lysates were also probed with antibody to the auto-phosphorylated form of PKR (P-Thr446).

[3] = PD98059 40 μM, R3616 10 PFU/cell, 12 hours post-infection

COc1cccc(-c2cc(=O)c3ccccc3o2)c1N [PD98059]
yield of R3616 mutant virus in the presence of PD98059 ([1]; PD98059 40 μM 6 hours prior to and during infection, 36 hours post-infection): 1.67×10^5 PFU/ml | fold lower yield of R3616 with PD98059 than with DMSO ([1]; PD98059 40 μM, 36 hours): approximately 15 fold | amount of activated PKR (P-Thr446) ([2]; PD98059 40 μM prior to and during infection with R3616): increased the amount of activated PKR | accumulation of ICP27 and UL42 proteins [2, 3]: slight effect | amounts of gC that accumulated [2, 3]: very dramatic decrease
